The first test addresses p38 MAP-kinase (Homo sapiens, UniProt Q16539). Description: Enzymatic assay: inhibition of p38 MAP-kinase (phosphorylation of GST-tagged ATF2, chemoluminescence bead readout). The format is biochemical. The note with it: inhibitor 1 μM; activated p38 MAP-kinase 1 nM; 4 h preincubation; ATP 100 μM; ATF2 10 nM. An outline of the steps:
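Activated human p38 MAP-kinase (1 nM) preincubated 4 h at ambient temperature with compound at 1 μM in HEPES pH 7, MgCl2, DTT, Tween20. Then reacted 1 h with GST-ATF2 (10 nM) and ATP (100 μM). Phospho-ATF2 read by bead chemoluminescence at 520-620 nm, given as % inhibition at 1 μM versus kinase-free background.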
p38 MAP-kinase, sequence (Q16539 whole entry): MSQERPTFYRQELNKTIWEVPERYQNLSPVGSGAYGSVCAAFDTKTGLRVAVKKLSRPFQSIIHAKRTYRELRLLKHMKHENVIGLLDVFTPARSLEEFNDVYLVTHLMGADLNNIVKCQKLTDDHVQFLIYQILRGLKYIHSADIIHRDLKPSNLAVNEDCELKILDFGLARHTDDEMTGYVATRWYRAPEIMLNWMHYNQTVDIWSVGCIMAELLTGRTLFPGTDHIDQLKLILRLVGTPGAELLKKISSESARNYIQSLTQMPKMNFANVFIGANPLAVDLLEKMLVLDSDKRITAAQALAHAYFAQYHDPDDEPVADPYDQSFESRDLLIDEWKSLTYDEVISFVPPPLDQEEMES
On to `COc1c(NC(=O)c2ccc(C)c(Oc3ccnc(N(C)C4CCNCC4)n3)c2)cc(C(C)(C)C)cc1NS(C)(=O)=O` [5(25), N-(5-tert-butyl-3-methanesulphonylamino-2-methoxy-phenyl)-4-methyl-3-[2-(methyl-piperidin-4-yl-amino)-pyrimidin-4-yloxy]-benzamide], for which the “% inhibitory effect at 1 μM” value was found to be 97.6%.

Staying with this test, now noted: inhibitor 1 μM; activated p38 MAP-kinase 1 nM; 4 h preincubation; ATP 100 μM; ATF2 10 nM; read-out: % inhibitory effect at 1 μM.
Turning to `CNc1nccc(Oc2cc(C(=O)Nc3cc(C(C)(C)C)cc(NS(C)(=O)=O)c3OC)ccc2C)n1` [Example 3, N-(5-tert-butyl-3-methanesulphonylamino-2-methoxy-phenyl)-4-methyl-3-(2-methylamino-pyrimidin-4-yloxy)-benzamide], the inhibition at 1 µM is 98.1%.

For the compound `COc1c(NC(=O)c2ccc(Br)c(Oc3ccnc(N4CCNCC4)n3)c2)cc(C(C)(C)C)cc1NS(C)(=O)=O` [5(11), N-(5-tert-butyl-3-methanesulphonylamino-2-methoxy-phenyl)-4-bromo-3-(2-piperazin-1-yl-pyrimidin-4-yloxy)-benzamide], the inhibition at 1 µM stood at 98.4%.

With `COc1c(NC(=O)c2ccc(Cl)c(Oc3ccnc(CC4CCN(C)CC4)c3)c2)cc(C(C)(C)C)cc1NS(C)(=O)=O` [12(5), N-(5-tert-butyl-3-methanesulphonylamino-2-methoxy-phenyl)-4-chloro-3-[2-(1-methyl-piperidin-4-ylmethyl)-pyridin-4-yloxy]-benzamide], the inhibition at 1 µM turned out to be 99.5%.

With `COc1c(NC(=O)c2ccc(C)c(Oc3cc(N4CCNCC4)ncn3)c2)cc(C(C)(C)C)cc1NS(C)(=O)=O` [5(1), N-(5-tert-butyl-3-methanesulphonylamino-2-methoxy-phenyl)-4-methyl-3-(6-piperazin-1-yl-pyrimidin-4-yloxy)-benzamide], the inhibition at 1 µM was determined as 96.8%.

Regarding `COc1c(NC(=O)c2ccc(C)c(Oc3ccnc(CN(C)C4CCN(C)C4)n3)c2)cc(C(C)(C)C)cc1NS(C)(=O)=O` (stereo not drawn) [8(19), N-(5-tert-butyl-3-methanesulphonylamino-2-methoxy-phenyl)-4-methyl-3-(2-{[methyl-(1-methyl-pyrrolidin-3-yl)-amino]-methyl}-pyrimidin-4-yloxy)-benzamide], the inhibition at 1 µM was 97%.

Regarding `COc1c(NC(=O)c2ccc(C)c(Oc3ccnc(CN(C)CCN(C)C)n3)c2)cc(C(C)(C)C)cc1NS(C)(=O)=O` [8(24), N-(5-tert-butyl-3-methanesulphonylamino-2-methoxy-phenyl)-3-(2-{[N-(2-dimethylamino-ethyl)-N-methyl-amino]-methyl}-pyrimidin-4-yloxy)-4-methyl-benzamide], the inhibition at 1 µM came to 92.4%.

In the case of `COc1c(NC(=O)c2ccc(Cl)c(Oc3ccnc(CN4CCCNCC4)c3)c2)cc(C(C)(C)C)cc1NS(C)(=O)=O` [5(37), N-(5-tert-butyl-3-methanesulphonylamino-2-methoxy-phenyl)-4-chloro-3-(2-[1,4]diazepan-1-ylmethyl-pyridin-4-yloxy)-benzamide], the inhibition at 1 µM came out at 99.3%.

Take `COc1c(NC(=O)c2ccc(C)c(Oc3ccnc(NCCN4CCCC4)n3)c2)cc(C(C)(C)C)cc1NS(C)(=O)=O` [Example 4, N-(5-tert-butyl-3-methanesulphonylamino-2-methoxy-phenyl)-4-methyl-3-[2-(2-pyrrolidin-1-yl-ethylamino)-pyrimidin-4-yloxy]-benzamide]: the inhibition at 1 µM was 97.7%.

In the case of `COc1c(NC(=O)c2ccc(C)c(Oc3ccnc(CC4CCNCC4)c3)c2)cc(C(C)(C)C)cc1S(C)(=O)=O` [11(3), N-(5-tert-butyl-3-methanesulphonyl-2-methoxy-phenyl)-4-methyl-3-(2-piperidin-4-ylmethyl-pyridin-4-yloxy)-benzamide], the inhibition at 1 µM was 99.5%.

Consider `COc1c(NC(=O)c2ccc(C)c(Oc3cc(CC4CCN(C)CC4)ncn3)c2)cc(C(C)(C)C)cc1NS(C)(=O)=O` [Example 9, N-(5-tert-butyl-3-methanesulphonylamino-2-methoxy-phenyl)-4-methyl-3-[6-(1-methyl-piperidin-4-ylmethyl)-pyrimidin-4-yloxy]-benzamide], for which the inhibition at 1 µM worked out at 98.4%.

Consider `COc1c(NC(=O)c2ccc(C)c(Oc3ccnc(CC4CCNCC4)n3)c2)cc(C(C)(C)C)cc1NS(C)(=O)=O` [5(19), N-(5-tert-butyl-3-methanesulphonylamino-2-methoxy-phenyl)-4-methyl-3-(2-piperidin-4-ylmethyl-pyrimidin-4-yloxy)-benzamide], for which the inhibition at 1 µM turned out to be 99.7%.

Consider `COc1ccc(C(=O)Nc2cc(C(C)(C)C)cc(NS(C)(=O)=O)c2OC)cc1Oc1ccnc(N2CCNCC2)n1` [5(8), N-(5-tert-butyl-3-methanesulphonylamino-2-methoxy-phenyl)-4-methoxy-3-(2-piperazin-1-yl-pyrimidin-4-yloxy)-benzamide], for which the inhibition at 1 µM was 98.9%.

Take `COc1c(NC(=O)c2ccc(C)c(Oc3cc(CN(C)CCN(C)C)ncn3)c2)cc(C(C)(C)C)cc1NS(C)(=O)=O` [8(30), N-(5-tert-butyl-3-methanesulphonylamino-2-methoxy-phenyl)-3-(6-{[(2-dimethylamino-ethyl)-methyl-amino]-methyl}-pyrimidin-4-yloxy)-4-methyl-benzamide]: the inhibition at 1 µM is 91.3%.

In the case of `COc1c(NC(=O)c2ccc(C)c(Oc3ccnc(N4CCNCC4)n3)c2)cc(C(C)(C)C)cc1NS(C)(=O)=O` [Example 5, N-(5-tert-butyl-3-methanesulphonylamino-2-methoxy-phenyl)-4-methyl-3-(2-piperazin-1-yl-pyrimidin-4-yloxy)-benzamide x trifluoroacetic acid], the inhibition at 1 µM was found to be 99%.

Consider `COc1c(NC(=O)c2ccc(C)c(Oc3ccnc(CC4CCNCC4)c3)c2)cc(C(C)(C)C)cc1[S+](C)[O-]` (stereo not drawn) [5(48), N-(5-tert-butyl-3-methanesulphinyl-2-methoxy-phenyl)-4-methyl-3-(2-piperidin-4-ylmethyl-pyridin-4-yloxy)-benzamide], for which the inhibition at 1 µM was 99.4%.

`CNC(=O)c1cc(Oc2cc(C(=O)Nc3cc(C(C)(C)C)cc(NS(C)(=O)=O)c3OC)ccc2C)ncn1` [Example 7, 6-[5-(5-tert-butyl-3-methanesulphonylamino-2-methoxy-phenylaminocarbonyl)-2-methyl-phenoxy]-pyrimidin-4-carboxylic acid-methylamide]: the inhibition at 1 µM was 95.6%.

With `COc1c(NC(=O)c2ccc(Cl)c(Oc3ccnc(NC4CCNCC4)c3)c2)cc(C(C)(C)C)cc1NS(C)(=O)=O` [5(31), N-(5-tert-butyl-3-methanesulphonylamino-2-methoxy-phenyl)-4-chloro-3-[2-(piperidin-4-ylamino)-pyridin-4-yloxy]-benzamide], the inhibition at 1 µM was found to be 99.4%.

Consider `COc1c(NC(=O)c2ccc(C)c(Oc3ccnc(CC4CCNCC4)c3)c2)cc(C(C)(C)C)cc1NC(=O)C(C)C` [5(47), N-(5-tert-butyl-3-isobutyrylamino-2-methoxy-phenyl)-4-methyl-3-(2-piperidin-4-ylmethyl-pyridin-4-yloxy)-benzamide], for which the inhibition at 1 µM stood at 97.3%.

With `COc1c(NC(=O)c2ccc(C)c(Oc3ccnc(CC4CCNCC4)n3)c2)cc(C(C)(C)C)cc1S(C)(=O)=O` [5(38), N-(5-tert-butyl-3-methanesulphonyl-2-methoxy-phenyl)-4-methyl-3-(2-piperidin-4-ylmethyl-pyrimidin-4-yloxy)-benzamide], the inhibition at 1 µM was determined as 98.8%.

For the compound `COc1c(NC(=O)c2cc(F)c(C)c(Oc3ccnc(N4CCNCC4)n3)c2)cc(C(C)(C)C)cc1NS(C)(=O)=O` [5(13), N-(5-tert-butyl-3-methanesulphonylamino-2-methoxy-phenyl)-3-fluoro-4-methyl-5-(2-piperazin-1-yl-pyrimidin-4-yloxy)-benzamide], the inhibition at 1 µM stood at 98.2%.

`COc1c(NC(=O)c2ccc(C)c(Oc3ccnc(CNC4CCN(C)CC4)n3)c2)cc(C(C)(C)C)cc1NS(C)(=O)=O` [8(17), N-(5-tert-butyl-3-methanesulphonylamino-2-methoxy-phenyl)-4-methyl-3-{2-[(1-methyl-piperidin-4-ylamino)-methyl]-pyrimidin-4-yloxy}-benzamide]: the inhibition at 1 µM was 96.7%.

Consider `COc1c(NC(=O)c2ccc(Cl)c(Oc3cc(CN4CCN(C)CC4)ncn3)c2)cc(C(C)(C)C)cc1NS(C)(=O)=O` [12(1), N-(5-tert-butyl-3-methanesulphonylamino-2-methoxy-phenyl)-4-chloro-3-[6-(4-methyl-piperazin-1-ylmethyl)-pyrimidin-4-yloxy]-benzamide], for which the inhibition at 1 µM is 99.4%.

Take `COc1c(NC(=O)c2ccc(C)c(Oc3cc(CC4CCCNCC4)ncn3)c2)cc(C(C)(C)C)cc1NS(C)(=O)=O` (stereo not drawn) [5(54), 3-(6-azepan-4-ylmethyl-pyrimidin-4-yloxy)-N-(5-tert-butyl-3-methanesulphonylamino-2-methoxy-phenyl)-4-methyl-benzamide]: the inhibition at 1 µM was determined as 99.7%.

Regarding `CNc1cc(Oc2cc(C(=O)Nc3cc(C(C)(C)C)cc(NS(C)(=O)=O)c3OC)ccc2C)ncn1` [3(1), N-(5-tert-butyl-3-methanesulphonylamino-2-methoxy-phenyl)-4-methyl-3-(6-methylamino-pyrimidin-4-yloxy)-benzamide], the inhibition at 1 µM was 97%.

Regarding `COc1c(NC(=O)c2ccc(Cl)c(Oc3ccnc(NC4CCNCC4)n3)c2)cc(C(C)(C)C)cc1NS(C)(=O)=O` [5(28), N-(5-tert-butyl-3-methanesulphonylamino-2-methoxy-phenyl)-4-chloro-3-[2-(piperidin-4-ylamino)-pyrimidin-4-yloxy]-benzamide], the inhibition at 1 µM came out at 99%.

Regarding `COc1c(NC(=O)c2ccc(C)c(Oc3ccnc(CN4CCCN(C)CC4)n3)c2)cc(C(C)(C)C)cc1NS(C)(=O)=O` [8(16), N-(5-tert-butyl-3-methanesulphonylamino-2-methoxy-phenyl)-4-methyl-3-[2-(4-methyl-homopiperazin-1-ylmethyl)-pyrimidin-4-yloxy]-benzamide], the inhibition at 1 µM is 98.7%.

Values taken from patent publication US8946438B2, “Benzamides, production thereof, and use thereof as medicaments” (Boehringer Ingelheim International GmbH, priority 2008, dated 2015).
